Legend:
CACO-2 = settings: human, Caco-2, pH 7.4
in vitro = settings: human, Caco-2, pH 7.4

% Recovery (CACO-2): 117% | Papp A→B (in vitro): 20.6 nm/s | Papp B→A (in vitro): 294 nm/s
Compound: C[C@H]1O[C@@H](O[C@H]2[C@@H](O)C[C@H](O[C@H]3[C@@H](O)C[C@H](O[C@H]4CC[C@@]5(C)[C@H](CC[C@@H]6[C@@H]5C[C@@H](O)[C@]5(C)[C@@H](C7=CC(=O)OC7)CC[C@]65O)C4)O[C@@H]3C)O[C@@H]2C)C[C@H](O)[C@@H]1O [DigoxinS]

Source: US20100216886A1, “POLYMORPHS OF N2-(1,1'-BIPHENYL-4-YLCARBONYL)-N1-[2-(4-FLUOROPHENYL)-1,1-DIMETHYLETHYL]-L-ALPHA-GLUTAMINE” (Wyeth, priority 2006, published 2010)
